US9695155B2, “Herbicidal substituted pyrimidinyloxy benzene compounds” (E. I. DU PONT DE NEMOURS AND COMPANY, priority 2013, dated 2017)

Experiments:
barnyardgrass [1] = assay: Test A preemergence; format: in vivo, Echinochloa crus-galli
How it was run: (§1)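 Injury scores run from 0, no effect, to 100, complete control, judged by eye against untreated plants roughly 10 days after treatment. Chemicals carried a surfactant in a non-phytotoxic solvent and went onto loam–sand soil preemergence or onto one- to two-leaf seedlings postemergence.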

wheat = assay: Test A postemergence; format: in vivo, Triticum aestivum
How it was run: as §1

Heteranthera limosa = assay: Test B flooded paddy test; format: in vivo; conditions: Flood, 250 g ai/ha; 0 to 100 scale where 0 is no effect and 100 is complete control
How it was run: (§2)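 Plants at 2-leaf stage; pots flooded to 3 cm above soil and compound applied directly into paddy water, depth held throughout. After 13 to 15 days in greenhouse, visual rating versus controls on 0 (no effect) to 100 (complete control) scale.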

barnyardgrass [2] = assay: Test B flooded paddy test; format: in vivo, Echinochloa crus-galli; conditions: Flood, 250 g ai/ha; 0 to 100 scale where 0 is no effect and 100 is complete control
How it was run: as §2

blackgrass [3] = assay: Test C preemergence; format: in vivo, Alopecurus myosuroides; conditions: for Blackgrass plant response rating: preemergence; for Plant response rating, Blackgrass: Preemergence, 31 g ai/ha, scale 0 to 100, 0 no effect, 100 complete control
How it was run: (§3)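 Seeds were sown in loam–sand blend and sprayed preemergence, while plants at 1- to 4-leaf stage (2–18 cm) in peat-based medium received postemergence sprays; test chemicals were formulated in a non-phytotoxic solvent with surfactant. After 13–15 days in a greenhouse, injury was rated visually against controls, 0 (no effect) to 100 (complete control).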

Italian ryegrass = assay: Test C preemergence; format: in vivo, Lolium multiflorum; conditions: preemergence
How it was run: as §3

wheat, winter = assay: Test C preemergence; format: in vivo, Triticum aestivum; conditions: preemergence
How it was run: as §3

large (Lg) crabgrass = assay: Test C preemergence; format: in vivo, Digitaria sanguinalis; conditions: for Crabgrass, Large plant response rating: preemergence; for Plant response rating, Crabgrass, Large: Preemergence, 31 g ai/ha, scale 0 to 100, 0 no effect, 100 complete control
How it was run: as §3

blackgrass [4] = assay: Test C postemergence; format: in vivo, Alopecurus myosuroides; conditions: for Plant response rating (0 to 100), Blackgrass: 16 g ai/ha, 0 is no effect, 100 is complete control; for Blackgrass plant response rating: 31 g ai/ha, 13 to 15 days; for Blackgrass plant response rating / Plant response rating, Blackgrass: scale 0 to 100 (0 no effect, 100 complete control)
How it was run: as §3

johnsongrass = assay: Test C postemergence; format: in vivo, Sorghum halepense; conditions: for Plant response rating (0 to 100), Johnsongrass: 16 g ai/ha, 0 is no effect, 100 is complete control; for Johnsongrass plant response rating: 31 g ai/ha, 13 to 15 days; for Johnsongrass plant response rating / Plant response rating, Johnsongrass: scale 0 to 100 (0 no effect, 100 complete control)
How it was run: as §3

wild oat = assay: Test C postemergence; format: in vivo, Avena fatua; conditions: for Plant response rating (0 to 100), Oat, Wild: 16 g ai/ha, 0 is no effect, 100 is complete control; for Oat, Wild plant response rating: 31 g ai/ha, 13 to 15 days; for Oat, Wild plant response rating / Plant response rating, Oat, Wild: scale 0 to 100 (0 no effect, 100 complete control)
How it was run: as §3

[5] = 125 g ai/ha, 0 to 100 scale where 0 is no effect and 100 is complete control
[6] = 500 g ai/ha, 0 to 100 scale where 0 is no effect and 100 is complete control
[7] = 16 g ai/ha, scale 0 to 100 (0 no effect, 100 complete control)
[8] = 62 g ai/ha, scale 0 (no effect) to 100 (complete control)
[9] = 125 g ai/ha, scale 0 (no effect) to 100 (complete control)
[10] = 125 g ai/ha, postemergence, visual rating

SMILES | Plant response rating, Ducksalad (Heteranthera limosa) | Plant response rating, Barnyardgrass (barnyardgrass [2]) | Blackgrass plant response rating (blackgrass [3]; [7]) | Blackgrass plant response rating (blackgrass [3]; [8]) | Blackgrass plant response rating (blackgrass [3]; [9]) | Plant response rating, Blackgrass (blackgrass [3]) | Ryegrass, Italian plant response rating (Italian ryegrass; [7]) | Ryegrass, Italian plant response rating (Italian ryegrass; [8]) | Ryegrass, Italian plant response rating (Italian ryegrass; [9]) | Wheat plant response rating (wheat, winter; [7]) | Wheat plant response rating (wheat, winter; [8]) | Wheat plant response rating (wheat, winter; [9]) | Crabgrass, Large plant response rating (large (Lg) crabgrass; [7]) | Crabgrass, Large plant response rating (large (Lg) crabgrass; [8]) | Crabgrass, Large plant response rating (large (Lg) crabgrass; [9]) | Plant response rating, Crabgrass, Large (large (Lg) crabgrass) | Plant response rating (0 to 100), Blackgrass (blackgrass [4]; postemergence) | Blackgrass plant response rating (blackgrass [4]; postemergence, visual rating) | Plant response rating, Blackgrass (blackgrass [4]; [10]) | Plant response rating, Blackgrass (blackgrass [4]; Postemergence, 62 g ai/ha) | also measured
CCCOc1cnn(-c2c(C#N)cccc2Oc2ncc(Cl)cn2)c1 [Compound 150] | 90 | 0 | 0 | 50 | 50 | 10 | 0 | 30 | 50 | 0 | 5 | 5 | 70 | 100 | 100 | 98 | 5 | 5 | 10 | 10 | Plant response rating, Barnyardgrass (barnyardgrass [1]; [5]): 90; Barnyardgrass plant response rating (barnyardgrass [1]; [6]): 100; Wheat plant response rating (wheat; [5]): 30; Plant response rating, Wheat (wheat; [6]): 90; Plant response rating (0 to 100), Johnsongrass (johnsongrass; postemergence): 0; Johnsongrass plant response rating (johnsongrass; postemergence, visual rating): 0; Plant response rating, Johnsongrass (johnsongrass; [10]): 5; Plant response rating, Johnsongrass (johnsongrass; Postemergence, 62 g ai/ha): 5; Plant response rating (0 to 100), Oat, Wild (wild oat; postemergence): 5; Oat, Wild plant response rating (wild oat; postemergence, visual rating): 5; Plant response rating, Oat, Wild (wild oat; [10]): 5; Plant response rating, Oat, Wild (wild oat; Postemergence, 62 g ai/ha): 5
FCc1cn(-c2c(F)cccc2Oc2ncc(Cl)cn2)nn1 [Compound 154] | 80 | 20 | 0 | 20 | 90 | 10 | 0 | 20 | 25 | 0 | 0 | 5 | 75 | 100 | 100 | 90 | 0 | 0 | 0 | 0 | Barnyardgrass plant response rating (barnyardgrass [1]; 1000 g ai/ha, 0 to 100 scale, 0 no effect, 100 complete control, approx. 10 days): 100; Plant response rating, Wheat (wheat; 1000 g ai/ha, 0 to 100 scale, 0 no effect, 100 complete control): 80; Plant response rating (0 to 100), Johnsongrass (johnsongrass; postemergence): 0; Johnsongrass plant response rating (johnsongrass; postemergence, visual rating): 0; Plant response rating, Johnsongrass (johnsongrass; [10]): 5; Plant response rating, Johnsongrass (johnsongrass; Postemergence, 62 g ai/ha): 0; Plant response rating (0 to 100), Oat, Wild (wild oat; postemergence): 0; Oat, Wild plant response rating (wild oat; postemergence, visual rating): 0; Plant response rating, Oat, Wild (wild oat; [10]): 0; Plant response rating, Oat, Wild (wild oat; Postemergence, 62 g ai/ha): 0
